Data taken from ChEMBL document CHEMBL2434853, “3-(3-Butylamino-2-hydroxy-propoxy)-1-hydroxy-xanthen-9-one acts as a topoisomerase IIα catalytic inhibitor with low DNA damage” (Eur J Med Chem, 2013).
Active and inactive are the calls of the source. The calls are words filed in the database; no cut-off is given here.

How the values were obtained:
[1] = target: T1, DNA topoisomerase 2-alpha (Homo sapiens, UniProt P11388); settings: 50 uM
Description: Competitive inhibition of recombinant human DNA topoisomerase-2alpha assessed as relaxation of supercoiled pBR322 DNA at 50 uM after 30 mins by agarose gel electrophoresis in presence of 1 mM ATP relative to control

[2] = target: T1, DNA topoisomerase 2-alpha; assay: Inhibition of human DNA topoisomerase-2alpha assessed as relaxation of supercoiled pBR322 DNA at 10 uM after 30 mins by agarose gel electrophoresis relative to control
[3] = target: T1, DNA topoisomerase 2-alpha; settings: 10 uM
Description: Competitive inhibition of recombinant human DNA topoisomerase-2alpha assessed as relaxation of supercoiled pBR322 DNA at 10 uM after 30 mins by agarose gel electrophoresis in presence of 1.5 mM ATP relative to control

[4] = target: T1, DNA topoisomerase 2-alpha; assay: Inhibition of human DNA topoisomerase-2alpha assessed as relaxation of supercoiled pBR322 DNA after 30 mins by agarose gel electrophoresis
[5] = target: T1, DNA topoisomerase 2-alpha; assay: Inhibition of human DNA topoisomerase-2alpha ATPase activity using supercoiled pUC18 DNA as substrate assessed as inorganic phosphate release at 400 uM incubated for 30 mins prior to ATP addition measured after 30 mins by malachite green phosphate assay relative to control
[6] = target: T1, DNA topoisomerase 2-alpha; settings: 2 uM
Description: Competitive inhibition of recombinant human DNA topoisomerase-2alpha assessed as relaxation of supercoiled pBR322 DNA at 2 uM after 30 mins by agarose gel electrophoresis in presence of 1 mM ATP relative to control

T47D = assay: Cytotoxicity against human T47D cells after 2 days by CCK-8 assay; assay type: functional, cell-based; settings: 48 h
[7] = target: T1, DNA topoisomerase 2-alpha; settings: 20 uM
Description: Competitive inhibition of recombinant human DNA topoisomerase-2alpha assessed as relaxation of supercoiled pBR322 DNA at 20 uM after 30 mins by agarose gel electrophoresis in presence of 1 mM ATP relative to control

[8] = target: T1, DNA topoisomerase 2-alpha; assay: Inhibition of human DNA topoisomerase-2alpha ATPase activity using supercoiled pUC18 DNA as substrate assessed as inorganic phosphate release at 200 uM incubated for 30 mins prior to ATP addition measured after 30 mins by malachite green phosphate assay relative to control
HCT-15 [9] = assay: Potency index, ratio of etoposide IC50 to compound IC50 for human HCT15 cells; assay type: functional
Escherichia coli [10] = assay: Induction of Escherichia coli pBR322 DNA intercalating activity assessed as retardation of DNA at 300 uM after 20 mins by agarose gel electrophoresis
[11] = target: T1, DNA topoisomerase 2-alpha; settings: 20 uM; remark: listed apart in the source
Description: Competitive inhibition of recombinant human DNA topoisomerase-2alpha assessed as relaxation of supercoiled pBR322 DNA at 20 uM after 30 mins by agarose gel electrophoresis in presence of 1.5 mM ATP relative to control

[12] = target: T1, DNA topoisomerase 2-alpha; settings: 50 uM; remark: listed apart in the source
Description: Competitive inhibition of recombinant human DNA topoisomerase-2alpha assessed as relaxation of supercoiled pBR322 DNA at 50 uM after 30 mins by agarose gel electrophoresis in presence of 1.5 mM ATP relative to control

[13] = target: T1, DNA topoisomerase 2-alpha; settings: 5 uM
Description: Competitive inhibition of recombinant human DNA topoisomerase-2alpha assessed as relaxation of supercoiled pBR322 DNA at 5 uM after 30 mins by agarose gel electrophoresis in presence of 1 mM ATP relative to control

[14] = target: T1, DNA topoisomerase 2-alpha; settings: 100 uM
Description: Competitive inhibition of recombinant human DNA topoisomerase-2alpha assessed as relaxation of supercoiled pBR322 DNA at 100 uM after 30 mins by agarose gel electrophoresis in presence of 1 mM ATP relative to control

DU-145 = assay: Cytotoxicity against human DU145 cells after 2 days by CCK-8 assay; assay type: functional, cell-based; settings: DU-145, 48 h
[15] = target: T1, DNA topoisomerase 2-alpha; assay: Inhibition of human DNA topoisomerase-2alpha assessed as relaxation of supercoiled pBR322 DNA at 20 uM after 30 mins by agarose gel electrophoresis relative to control
[16] = target: T1, DNA topoisomerase 2-alpha; assay: Inhibition of human DNA topoisomerase-2alpha assessed as relaxation of supercoiled pBR322 DNA at 100 uM after 30 mins by agarose gel electrophoresis relative to control
[17] = target: T1, DNA topoisomerase 2-alpha; settings: 10 uM; remark: listed apart in the source
Description: Competitive inhibition of recombinant human DNA topoisomerase-2alpha assessed as relaxation of supercoiled pBR322 DNA at 10 uM after 30 mins by agarose gel electrophoresis in presence of 1 mM ATP relative to control

HEK293 = assay: Cytotoxicity against HEK293 cells after 2 days by CCK-8 assay; assay type: functional, cell-based; settings: Homo sapiens, HEK293, 48 h
[18] = Induction of pHOT1 DNA (unknown origin) intercalating activity assessed as blockade of DNA unwinding after 30 mins by agarose gel electrophoresis in presence of DNA topoisomerase-1
[19] = target: T1, DNA topoisomerase 2-alpha; settings: 2 uM; remark: listed apart in the source
Description: Competitive inhibition of recombinant human DNA topoisomerase-2alpha assessed as relaxation of supercoiled pBR322 DNA at 2 uM after 30 mins by agarose gel electrophoresis in presence of 1.5 mM ATP relative to control

[20] = target: T1, DNA topoisomerase 2-alpha; assay: Inhibition of human DNA topoisomerase-2alpha ATPase activity using supercoiled pUC18 DNA as substrate assessed as inorganic phosphate release at 300 uM incubated for 30 mins prior to ATP addition measured after 30 mins by malachite green phosphate assay relative to control
[21] = target: T1, DNA topoisomerase 2-alpha; settings: 100 uM; remark: listed apart in the source
Description: Competitive inhibition of recombinant human DNA topoisomerase-2alpha assessed as relaxation of supercoiled pBR322 DNA at 100 uM after 30 mins by agarose gel electrophoresis in presence of 1.5 mM ATP relative to control

HCT-15 [22] = assay: Induction of DNA damage in human HCT15 cells at 10 uM after 24 hrs by comet assay; assay type: functional, cell-based
[23] = target: T1, DNA topoisomerase 2-alpha; settings: 5 uM; remark: listed apart in the source
Description: Competitive inhibition of recombinant human DNA topoisomerase-2alpha assessed as relaxation of supercoiled pBR322 DNA at 5 uM after 30 mins by agarose gel electrophoresis in presence of 1.5 mM ATP relative to control

HCT-15 [24] = assay: Cytotoxicity against human HCT15 cells after 2 days by CCK-8 assay; assay type: functional, cell-based; settings: HCT-15, 48 h
[25] = target: T2, DNA topoisomerase 1 (Homo sapiens) (UniProt P11387); assay: Inhibition of recombinant human DNA topoisomerase-1 assessed as relaxation of supercoiled pBR322 DNA at 20 uM after 30 mins by agarose gel electrophoresis relative to control
T2 sequence (whole entry): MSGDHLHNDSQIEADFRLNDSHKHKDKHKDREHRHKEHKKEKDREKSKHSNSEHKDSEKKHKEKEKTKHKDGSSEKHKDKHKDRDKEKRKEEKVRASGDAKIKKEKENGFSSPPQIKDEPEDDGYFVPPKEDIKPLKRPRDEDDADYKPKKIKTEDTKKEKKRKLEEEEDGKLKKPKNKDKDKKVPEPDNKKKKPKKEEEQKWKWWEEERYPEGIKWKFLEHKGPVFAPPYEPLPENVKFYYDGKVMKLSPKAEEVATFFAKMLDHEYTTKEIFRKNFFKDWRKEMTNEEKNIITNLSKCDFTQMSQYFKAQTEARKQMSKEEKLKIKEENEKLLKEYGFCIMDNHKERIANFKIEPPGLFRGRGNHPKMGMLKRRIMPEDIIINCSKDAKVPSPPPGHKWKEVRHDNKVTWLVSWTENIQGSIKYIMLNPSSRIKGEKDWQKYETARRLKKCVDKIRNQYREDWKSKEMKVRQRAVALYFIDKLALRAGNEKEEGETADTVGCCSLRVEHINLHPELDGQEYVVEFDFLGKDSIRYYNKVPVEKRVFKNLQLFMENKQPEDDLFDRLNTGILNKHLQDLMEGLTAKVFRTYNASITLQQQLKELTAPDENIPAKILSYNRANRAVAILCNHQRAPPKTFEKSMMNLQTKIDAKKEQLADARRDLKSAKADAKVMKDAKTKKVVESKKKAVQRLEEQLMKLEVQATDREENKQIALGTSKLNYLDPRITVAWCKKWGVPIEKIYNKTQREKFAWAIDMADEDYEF

Escherichia coli [26] = assay: Induction of Escherichia coli pBR322 DNA intercalating activity assessed as retardation of DNA at 1 to 2.5 uM after 20 mins by agarose gel electrophoresis
[27] = Induction of pHOT1 DNA (unknown origin) intercalating activity assessed as blockade of DNA unwinding at 50 to 500 uM after 30 mins by agarose gel electrophoresis in presence of DNA topoisomerase-1

T1 sequence (P11388 whole entry): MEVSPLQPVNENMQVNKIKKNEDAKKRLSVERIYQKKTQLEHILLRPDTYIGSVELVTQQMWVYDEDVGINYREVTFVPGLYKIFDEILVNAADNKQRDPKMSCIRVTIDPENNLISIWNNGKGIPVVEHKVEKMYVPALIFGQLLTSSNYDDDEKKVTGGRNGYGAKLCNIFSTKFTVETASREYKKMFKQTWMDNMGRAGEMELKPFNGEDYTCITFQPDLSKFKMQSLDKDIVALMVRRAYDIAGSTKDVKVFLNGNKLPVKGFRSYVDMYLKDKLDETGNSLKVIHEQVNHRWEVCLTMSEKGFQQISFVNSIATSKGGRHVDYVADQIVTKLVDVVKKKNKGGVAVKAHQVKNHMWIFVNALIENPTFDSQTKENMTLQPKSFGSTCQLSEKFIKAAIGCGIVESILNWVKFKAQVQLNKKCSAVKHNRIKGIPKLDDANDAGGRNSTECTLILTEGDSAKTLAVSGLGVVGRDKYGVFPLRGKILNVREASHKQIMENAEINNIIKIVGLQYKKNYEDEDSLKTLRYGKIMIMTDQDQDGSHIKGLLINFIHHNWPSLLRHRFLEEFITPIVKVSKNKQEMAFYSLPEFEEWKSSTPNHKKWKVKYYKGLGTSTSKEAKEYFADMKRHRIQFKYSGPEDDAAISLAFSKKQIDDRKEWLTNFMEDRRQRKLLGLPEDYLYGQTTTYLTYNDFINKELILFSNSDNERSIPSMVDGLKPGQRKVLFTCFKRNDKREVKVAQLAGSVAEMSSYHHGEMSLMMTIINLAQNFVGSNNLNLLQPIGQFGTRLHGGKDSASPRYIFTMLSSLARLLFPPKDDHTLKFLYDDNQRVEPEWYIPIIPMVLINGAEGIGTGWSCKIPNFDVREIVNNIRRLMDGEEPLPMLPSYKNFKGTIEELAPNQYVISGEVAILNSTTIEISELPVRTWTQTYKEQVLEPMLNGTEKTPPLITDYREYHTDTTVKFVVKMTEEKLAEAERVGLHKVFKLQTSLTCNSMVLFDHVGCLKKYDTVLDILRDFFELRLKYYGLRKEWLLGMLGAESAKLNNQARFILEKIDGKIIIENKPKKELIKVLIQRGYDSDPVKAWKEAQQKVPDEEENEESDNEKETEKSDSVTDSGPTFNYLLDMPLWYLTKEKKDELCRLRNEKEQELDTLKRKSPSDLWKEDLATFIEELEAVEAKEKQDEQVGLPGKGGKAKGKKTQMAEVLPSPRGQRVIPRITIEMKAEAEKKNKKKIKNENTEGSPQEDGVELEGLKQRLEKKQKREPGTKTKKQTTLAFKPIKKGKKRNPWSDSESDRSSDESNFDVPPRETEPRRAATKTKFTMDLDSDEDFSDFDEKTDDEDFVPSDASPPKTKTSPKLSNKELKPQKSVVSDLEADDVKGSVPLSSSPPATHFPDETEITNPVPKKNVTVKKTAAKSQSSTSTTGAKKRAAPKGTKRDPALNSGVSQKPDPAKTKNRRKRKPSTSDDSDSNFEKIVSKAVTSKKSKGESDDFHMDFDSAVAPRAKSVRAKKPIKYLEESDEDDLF

Structure (SMILES) | inhibition [2] | IC50 [4] | IC50 (T47D) | IC50 (DU-145) | inhibition [15] | inhibition [16] | IC50 (HEK293) | IC50 (HCT-15 [24]) | inhibition [25] | other results
CCCCNCC(O)COc1cc(O)c2c(=O)c3ccccc3oc2c1 (configuration not stated) | 64% | 9 µM | 0.93 µM | 1.98 µM | 67.7% | 95.1% | 3.44 µM | 0.78 µM | 0% | inhibition [1]: 87.7%; inhibition [3]: 21%; inhibition [5]: 33.7%; inhibition [6]: 4%; inhibition [7]: 87.9%; inhibition [8]: 15.1%; Ratio IC50 (HCT-15 [9]): 6.6; Activity (Escherichia coli [10]): Active; inhibition [11]: 37.7%; inhibition [12]: 64.9%; inhibition [13]: 48.5%; inhibition [14]: 88.7%; inhibition [17]: 60.4%; Activity [18]: Dose-dependent effect; inhibition [19]: 7.1%; inhibition [20]: 23.9%; inhibition [21]: 88.7%; Activity (HCT-15 [22]): inactive; inhibition [23]: 17.5%
CCCCCCNCC(O)COc1cc(O)c2c(=O)c3ccccc3oc2c1 (configuration not stated) | 0% | 19.7 µM | 1.28 µM | 1.15 µM | 43.6% | 80.7% | 1.45 µM | 1.53 µM | 0% | –
CCCCNCC(O)COc1cc(O)c2c(=O)c3cccc(OC)c3oc2c1 (configuration not stated) | 24.2% | 11.2 µM | 2.97 µM | 3.31 µM | 68.1% | 100% | 1.74 µM | 9.11 µM | 0% | –
CCCCCNCC(O)COc1cc(O)c2c(=O)c3cccc(OC)c3oc2c1 (configuration not stated) | 2% | 13.8 µM | 9.8 µM | 0.91 µM | 62.6% | 100% | 7.22 µM | 1 µM | 0% | –
CCCCCNCC(O)COc1cc(O)c2c(=O)c3ccccc3oc2c1 (configuration not stated) | 0.7% | 16.4 µM | 1.62 µM | 1.13 µM | 52.1% | 92.9% | 2.65 µM | 0.71 µM | 3% | –
CCCNCC(O)COc1cc(O)c2c(=O)c3cccc(OC)c3oc2c1 (configuration not stated) | 6% | 12 µM | 3.33 µM | 1.48 µM | 64.4% | 100% | 3.62 µM | 5.39 µM | 0% | –
CCCNCC(O)COc1cc(O)c2c(=O)c3ccccc3oc2c1 (configuration not stated) | 50.2% | 10.4 µM | 6.49 µM | 1.98 µM | 60.2% | 93.8% | 4.28 µM | 5.49 µM | 0% | –
CC[n+]1c(-c2ccccc2)c2cc(N)ccc2c2ccc(N)cc21 | – | – | – | – | – | – | – | – | – | Activity (Escherichia coli [26]): Active
COc1cc([C@@H]2c3cc4c(cc3[C@@H](O[C@@H]3O[C@@H]5CO[C@@H](C)O[C@H]5[C@H](O)[C@H]3O)[C@H]3COC(=O)[C@H]23)OCO4)cc(OC)c1O [ETOPOSIDE] | 18% | – | 3.42 µM | 9.29 µM | – | – | 0.72 µM | 5.12 µM | – | inhibition [14]: 87.6%; inhibition [21]: 82.6%; Activity (HCT-15 [22]): Active
CC[C@@]1(O)C(=O)OCc2c1cc1n(c2=O)Cc2cc3ccccc3nc2-1 [CAMPTOTHECIN] | – | – | 0.3 µM | 0.39 µM | – | – | 0.78 µM | 0.42 µM | – | –
COc1cccc2c1C(=O)c1c(O)c3c(c(O)c1C2=O)C[C@@](O)(C(=O)CO)C[C@@H]3O[C@H]1C[C@H](N)[C@H](O)[C@H](C)O1 [DOXORUBICIN] | – | – | 0.41 µM | 2.68 µM | – | – | 3.07 µM | 1.38 µM | – | –
CCCCCCNCC(O)COc1cc(O)c2c(=O)c3cccc(OC)c3oc2c1 (configuration not stated) | 0% | 13.8 µM | 6.17 µM | 1.79 µM | 61.2% | 100% | 4.53 µM | 6.32 µM | 0% | –
COc1cc(NS(C)(=O)=O)ccc1Nc1c2ccccc2nc2ccccc12 | – | – | – | – | – | – | – | – | – | Activity [27]: Active
CO[C@@H]1[C@@H](OC(N)=O)[C@@H](O)[C@H](Oc2ccc3c(O)c(NC(=O)c4ccc(O)c(CC=C(C)C)c4)c(=O)oc3c2C)OC1(C)C | – | – | – | – | – | – | – | – | – | inhibition [5]: 76.8%; inhibition [8]: 14.4%; inhibition [20]: 63.6%
